Holding throughout (test): biochemical
Holding throughout (type): binding

The target in assay [1] is T1, panel of 442 kinases (Homo sapiens, UniProt O14976).
T1 construct: purchased Ambit Biosciences (scanMAXX KINOMEscan)
T1 sequence (O14976 1-1311): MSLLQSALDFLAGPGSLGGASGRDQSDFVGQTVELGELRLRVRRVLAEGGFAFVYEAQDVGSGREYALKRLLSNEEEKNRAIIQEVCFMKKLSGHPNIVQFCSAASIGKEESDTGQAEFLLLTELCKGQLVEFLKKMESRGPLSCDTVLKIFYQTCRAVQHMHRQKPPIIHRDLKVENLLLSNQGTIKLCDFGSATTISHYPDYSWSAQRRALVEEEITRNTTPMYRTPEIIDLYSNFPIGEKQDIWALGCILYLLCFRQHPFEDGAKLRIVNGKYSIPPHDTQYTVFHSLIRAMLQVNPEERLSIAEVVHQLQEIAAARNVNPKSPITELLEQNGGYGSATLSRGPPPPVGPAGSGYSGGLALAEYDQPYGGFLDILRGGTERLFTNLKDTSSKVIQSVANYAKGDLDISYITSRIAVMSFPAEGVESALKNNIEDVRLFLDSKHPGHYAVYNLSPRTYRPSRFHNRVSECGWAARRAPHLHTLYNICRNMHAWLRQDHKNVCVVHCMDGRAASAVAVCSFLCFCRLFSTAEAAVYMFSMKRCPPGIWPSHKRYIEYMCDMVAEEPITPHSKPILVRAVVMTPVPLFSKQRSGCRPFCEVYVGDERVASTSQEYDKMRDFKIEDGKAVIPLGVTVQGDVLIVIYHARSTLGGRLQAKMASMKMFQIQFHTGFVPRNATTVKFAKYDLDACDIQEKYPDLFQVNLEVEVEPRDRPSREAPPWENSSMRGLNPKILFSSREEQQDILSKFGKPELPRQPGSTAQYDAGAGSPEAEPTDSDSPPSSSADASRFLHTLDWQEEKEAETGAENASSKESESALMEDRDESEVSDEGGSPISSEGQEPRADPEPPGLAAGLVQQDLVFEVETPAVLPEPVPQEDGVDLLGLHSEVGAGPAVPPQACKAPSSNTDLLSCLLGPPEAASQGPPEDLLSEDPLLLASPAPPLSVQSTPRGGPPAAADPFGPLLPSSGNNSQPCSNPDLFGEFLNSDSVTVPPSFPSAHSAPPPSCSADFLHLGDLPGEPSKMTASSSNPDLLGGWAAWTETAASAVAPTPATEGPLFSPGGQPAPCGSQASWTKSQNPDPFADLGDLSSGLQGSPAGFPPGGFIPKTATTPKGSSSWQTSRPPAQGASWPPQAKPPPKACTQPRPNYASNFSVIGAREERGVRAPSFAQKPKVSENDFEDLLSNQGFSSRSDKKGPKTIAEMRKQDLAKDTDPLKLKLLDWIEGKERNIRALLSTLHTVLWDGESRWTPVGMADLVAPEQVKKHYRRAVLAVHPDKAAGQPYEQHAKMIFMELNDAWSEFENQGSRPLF
The note with it: kinase GAK; for remaining activity at 1 µM: read-out: % of control at 1 µM.

The target in assay [2] is T2, panel of 442 kinases (Homo sapiens, UniProt P06213).
T2 construct: purchased Ambit Biosciences (scanMAXX KINOMEscan)
T2 sequence (P06213 28-1382): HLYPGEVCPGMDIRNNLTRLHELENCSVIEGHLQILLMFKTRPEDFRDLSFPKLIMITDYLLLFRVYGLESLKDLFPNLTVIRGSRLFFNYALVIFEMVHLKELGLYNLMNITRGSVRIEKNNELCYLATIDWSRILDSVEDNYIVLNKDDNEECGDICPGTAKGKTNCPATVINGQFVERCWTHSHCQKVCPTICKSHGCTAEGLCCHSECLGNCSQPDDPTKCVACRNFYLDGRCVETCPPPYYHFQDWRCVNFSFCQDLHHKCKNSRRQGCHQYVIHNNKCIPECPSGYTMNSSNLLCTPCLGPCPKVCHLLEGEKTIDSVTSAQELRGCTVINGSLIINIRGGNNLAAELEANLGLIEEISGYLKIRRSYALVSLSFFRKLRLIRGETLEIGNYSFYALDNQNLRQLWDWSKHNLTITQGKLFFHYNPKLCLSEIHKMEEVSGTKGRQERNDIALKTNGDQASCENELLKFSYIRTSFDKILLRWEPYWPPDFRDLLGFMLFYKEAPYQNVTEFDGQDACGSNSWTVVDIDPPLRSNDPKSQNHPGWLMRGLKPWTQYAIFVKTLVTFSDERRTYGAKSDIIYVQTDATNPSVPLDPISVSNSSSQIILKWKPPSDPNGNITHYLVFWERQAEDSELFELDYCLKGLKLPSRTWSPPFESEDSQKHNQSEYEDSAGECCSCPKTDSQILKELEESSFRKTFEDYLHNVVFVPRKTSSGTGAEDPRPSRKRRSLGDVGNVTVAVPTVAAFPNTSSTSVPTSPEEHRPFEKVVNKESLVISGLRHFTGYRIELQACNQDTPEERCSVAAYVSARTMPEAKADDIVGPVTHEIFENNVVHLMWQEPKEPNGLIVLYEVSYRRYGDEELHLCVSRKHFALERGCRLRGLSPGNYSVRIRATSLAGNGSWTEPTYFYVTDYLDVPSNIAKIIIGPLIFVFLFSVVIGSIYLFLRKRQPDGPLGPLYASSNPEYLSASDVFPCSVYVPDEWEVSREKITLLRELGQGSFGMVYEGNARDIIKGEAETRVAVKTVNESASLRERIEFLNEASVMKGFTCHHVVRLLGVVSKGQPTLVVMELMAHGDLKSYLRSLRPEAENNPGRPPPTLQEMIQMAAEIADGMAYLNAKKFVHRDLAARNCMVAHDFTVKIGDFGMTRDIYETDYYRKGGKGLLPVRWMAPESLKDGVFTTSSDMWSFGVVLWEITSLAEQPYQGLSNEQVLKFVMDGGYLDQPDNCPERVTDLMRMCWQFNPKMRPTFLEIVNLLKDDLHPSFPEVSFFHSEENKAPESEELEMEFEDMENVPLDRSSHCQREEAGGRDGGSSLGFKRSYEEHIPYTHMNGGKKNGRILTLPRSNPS
The note with it: kinase INSR; for remaining activity at 1 µM: read-out: % of control at 1 µM.

In assay [3] the target is T3, panel of 442 kinases (Homo sapiens, UniProt P0C1S8).
T3 construct: purchased Ambit Biosciences (scanMAXX KINOMEscan)
T3 sequence (P0C1S8 whole entry): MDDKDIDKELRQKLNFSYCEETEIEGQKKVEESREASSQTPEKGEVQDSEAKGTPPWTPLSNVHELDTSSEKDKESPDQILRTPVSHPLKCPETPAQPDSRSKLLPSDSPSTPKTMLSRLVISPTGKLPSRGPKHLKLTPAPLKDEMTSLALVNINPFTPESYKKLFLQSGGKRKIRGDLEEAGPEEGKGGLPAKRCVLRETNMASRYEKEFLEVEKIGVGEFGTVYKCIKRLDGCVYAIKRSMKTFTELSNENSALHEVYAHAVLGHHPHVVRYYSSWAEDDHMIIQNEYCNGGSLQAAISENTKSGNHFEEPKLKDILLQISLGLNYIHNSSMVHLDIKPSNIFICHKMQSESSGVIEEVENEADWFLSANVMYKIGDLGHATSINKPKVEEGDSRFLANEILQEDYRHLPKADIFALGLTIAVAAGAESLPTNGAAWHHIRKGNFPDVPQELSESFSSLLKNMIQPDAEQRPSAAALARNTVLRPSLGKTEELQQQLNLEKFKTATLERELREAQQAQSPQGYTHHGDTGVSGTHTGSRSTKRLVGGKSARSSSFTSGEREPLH
The note with it: kinase WEE2; for remaining activity at 1 µM: read-out: WEE2 (% of control at 1 µM).

Assay [4] concerns the target T4, panel of 442 kinases (Homo sapiens, UniProt P54646).
T4 construct: purchased Ambit Biosciences (scanMAXX KINOMEscan)
The note with it: AMPK-alpha2; for remaining activity at 1 µM: read-out: % of control at 1 µM.

Assay [5] addresses T5, panel of 442 kinases (Homo sapiens, UniProt Q16816).
T5 construct: purchased Ambit Biosciences (scanMAXX KINOMEscan)
The note with it: kinase PHKG1; for remaining activity at 1 µM: read-out: % of control at 1 µM.

Assay [6] has as its target T6, panel of 442 kinases (Homo sapiens, UniProt Q9BYT3).
T6 construct: purchased Ambit Biosciences (scanMAXX KINOMEscan)
The note with it: kinase STK33; for remaining activity at 1 µM: read-out: STK33 (% of control at 1 µM).

Assay [7] concerns the target T7, panel of 442 kinases (Homo sapiens, UniProt Q9C098).
T7 construct: purchased Ambit Biosciences (scanMAXX KINOMEscan)
The note with it: DCAMKL3; for remaining activity at 1 µM: read-out: % of control at 1 µM.

Assay [8] deals with T8, panel of 442 kinases (Homo sapiens, UniProt Q9H2K8).
T8 construct: purchased Ambit Biosciences (scanMAXX KINOMEscan)
T8 sequence (Q9H2K8 1-898): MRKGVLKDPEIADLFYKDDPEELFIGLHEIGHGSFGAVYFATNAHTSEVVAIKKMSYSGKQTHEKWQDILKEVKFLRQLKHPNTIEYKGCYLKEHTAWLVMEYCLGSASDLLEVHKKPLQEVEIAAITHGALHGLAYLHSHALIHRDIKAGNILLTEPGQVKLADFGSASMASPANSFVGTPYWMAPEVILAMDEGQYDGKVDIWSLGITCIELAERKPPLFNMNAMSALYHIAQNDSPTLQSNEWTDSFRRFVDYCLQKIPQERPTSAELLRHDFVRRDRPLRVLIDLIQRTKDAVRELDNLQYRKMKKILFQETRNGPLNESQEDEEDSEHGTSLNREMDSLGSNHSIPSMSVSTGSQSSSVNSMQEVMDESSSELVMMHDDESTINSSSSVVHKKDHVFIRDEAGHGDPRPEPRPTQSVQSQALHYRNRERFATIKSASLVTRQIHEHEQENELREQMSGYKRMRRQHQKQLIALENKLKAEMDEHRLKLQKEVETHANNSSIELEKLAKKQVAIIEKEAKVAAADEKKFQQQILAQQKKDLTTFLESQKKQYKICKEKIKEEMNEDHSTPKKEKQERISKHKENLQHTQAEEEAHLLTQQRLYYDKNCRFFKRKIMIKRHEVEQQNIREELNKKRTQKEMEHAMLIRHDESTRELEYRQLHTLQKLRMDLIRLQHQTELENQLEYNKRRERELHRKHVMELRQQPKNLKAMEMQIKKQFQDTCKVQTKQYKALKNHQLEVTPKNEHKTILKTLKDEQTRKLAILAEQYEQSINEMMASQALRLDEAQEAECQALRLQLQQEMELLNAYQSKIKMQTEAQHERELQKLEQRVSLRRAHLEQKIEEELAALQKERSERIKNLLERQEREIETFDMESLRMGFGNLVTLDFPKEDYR
The note with it: kinase TAOK3; for remaining activity at 1 µM: read-out: TAOK3 (% of control at 1 µM).

Assay [9] concerns the target T9, panel of 442 kinases (Homo sapiens, UniProt P15056, V600E).
T9 construct: purchased Ambit Biosciences (scanMAXX KINOMEscan)
The conditions noted are these: BRAF(V600E); for remaining activity at 1 µM: read-out: % of control at 1 µM.

Where [10] appears, read: 10 µM, read-out: % of control at 10 µM.

T9 sequence (P15056 whole entry V600E): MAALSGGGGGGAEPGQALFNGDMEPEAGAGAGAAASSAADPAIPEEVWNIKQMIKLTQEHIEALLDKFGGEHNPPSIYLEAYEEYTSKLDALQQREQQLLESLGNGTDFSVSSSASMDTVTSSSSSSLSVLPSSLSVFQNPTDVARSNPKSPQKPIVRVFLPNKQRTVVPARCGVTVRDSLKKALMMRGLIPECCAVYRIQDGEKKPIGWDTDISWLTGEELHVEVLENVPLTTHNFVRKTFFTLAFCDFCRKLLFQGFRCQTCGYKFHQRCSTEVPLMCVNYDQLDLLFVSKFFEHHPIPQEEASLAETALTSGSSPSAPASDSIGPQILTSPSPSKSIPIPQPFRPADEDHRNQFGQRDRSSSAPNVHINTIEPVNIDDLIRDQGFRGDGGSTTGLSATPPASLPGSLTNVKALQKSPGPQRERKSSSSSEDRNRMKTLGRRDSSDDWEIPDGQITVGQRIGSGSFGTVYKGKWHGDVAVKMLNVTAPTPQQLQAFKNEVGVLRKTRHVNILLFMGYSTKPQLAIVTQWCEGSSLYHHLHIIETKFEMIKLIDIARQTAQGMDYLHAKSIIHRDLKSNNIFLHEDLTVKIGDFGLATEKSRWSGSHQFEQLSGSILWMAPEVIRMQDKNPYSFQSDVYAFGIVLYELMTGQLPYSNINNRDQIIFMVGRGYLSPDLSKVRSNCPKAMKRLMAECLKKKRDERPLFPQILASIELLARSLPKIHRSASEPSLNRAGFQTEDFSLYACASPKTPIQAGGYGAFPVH
T6 sequence (Q9BYT3 whole entry): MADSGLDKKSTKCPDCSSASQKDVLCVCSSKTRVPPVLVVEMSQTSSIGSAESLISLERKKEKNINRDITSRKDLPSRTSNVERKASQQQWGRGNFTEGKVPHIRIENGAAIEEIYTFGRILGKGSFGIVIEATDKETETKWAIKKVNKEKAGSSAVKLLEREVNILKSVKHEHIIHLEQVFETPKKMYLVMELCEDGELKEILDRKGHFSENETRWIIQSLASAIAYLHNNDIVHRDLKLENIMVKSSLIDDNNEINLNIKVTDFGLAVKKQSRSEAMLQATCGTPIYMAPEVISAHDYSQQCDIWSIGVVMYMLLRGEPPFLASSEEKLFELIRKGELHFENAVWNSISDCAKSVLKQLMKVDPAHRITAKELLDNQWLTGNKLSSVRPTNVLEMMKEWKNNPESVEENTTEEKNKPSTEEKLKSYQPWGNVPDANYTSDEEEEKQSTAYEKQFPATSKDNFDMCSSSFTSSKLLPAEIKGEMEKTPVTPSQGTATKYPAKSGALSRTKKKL
T4 sequence (P54646 whole entry): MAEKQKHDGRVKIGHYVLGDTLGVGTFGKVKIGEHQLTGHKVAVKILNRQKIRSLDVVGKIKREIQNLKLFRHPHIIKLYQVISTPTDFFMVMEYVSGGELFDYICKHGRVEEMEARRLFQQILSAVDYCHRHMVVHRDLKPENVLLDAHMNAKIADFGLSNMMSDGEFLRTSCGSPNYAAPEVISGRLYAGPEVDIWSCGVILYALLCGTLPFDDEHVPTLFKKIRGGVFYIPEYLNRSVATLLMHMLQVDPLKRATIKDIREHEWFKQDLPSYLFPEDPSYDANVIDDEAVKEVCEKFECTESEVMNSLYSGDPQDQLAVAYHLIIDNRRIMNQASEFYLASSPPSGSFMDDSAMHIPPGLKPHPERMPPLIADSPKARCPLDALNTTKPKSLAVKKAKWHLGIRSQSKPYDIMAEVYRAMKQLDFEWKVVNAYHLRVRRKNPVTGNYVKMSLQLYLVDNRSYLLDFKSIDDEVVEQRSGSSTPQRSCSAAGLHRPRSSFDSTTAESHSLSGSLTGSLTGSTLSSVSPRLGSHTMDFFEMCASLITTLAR
T5 sequence (Q16816 whole entry): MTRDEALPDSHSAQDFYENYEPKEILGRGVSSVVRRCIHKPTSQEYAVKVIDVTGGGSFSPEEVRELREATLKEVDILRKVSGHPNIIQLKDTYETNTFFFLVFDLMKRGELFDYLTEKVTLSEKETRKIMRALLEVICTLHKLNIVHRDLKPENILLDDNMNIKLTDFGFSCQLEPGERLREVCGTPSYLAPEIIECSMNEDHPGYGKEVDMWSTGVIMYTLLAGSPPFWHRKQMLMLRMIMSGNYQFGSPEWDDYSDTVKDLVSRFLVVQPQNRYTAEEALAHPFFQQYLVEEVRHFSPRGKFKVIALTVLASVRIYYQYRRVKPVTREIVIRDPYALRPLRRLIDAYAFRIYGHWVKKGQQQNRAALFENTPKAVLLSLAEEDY
T7 sequence (Q9C098 whole entry): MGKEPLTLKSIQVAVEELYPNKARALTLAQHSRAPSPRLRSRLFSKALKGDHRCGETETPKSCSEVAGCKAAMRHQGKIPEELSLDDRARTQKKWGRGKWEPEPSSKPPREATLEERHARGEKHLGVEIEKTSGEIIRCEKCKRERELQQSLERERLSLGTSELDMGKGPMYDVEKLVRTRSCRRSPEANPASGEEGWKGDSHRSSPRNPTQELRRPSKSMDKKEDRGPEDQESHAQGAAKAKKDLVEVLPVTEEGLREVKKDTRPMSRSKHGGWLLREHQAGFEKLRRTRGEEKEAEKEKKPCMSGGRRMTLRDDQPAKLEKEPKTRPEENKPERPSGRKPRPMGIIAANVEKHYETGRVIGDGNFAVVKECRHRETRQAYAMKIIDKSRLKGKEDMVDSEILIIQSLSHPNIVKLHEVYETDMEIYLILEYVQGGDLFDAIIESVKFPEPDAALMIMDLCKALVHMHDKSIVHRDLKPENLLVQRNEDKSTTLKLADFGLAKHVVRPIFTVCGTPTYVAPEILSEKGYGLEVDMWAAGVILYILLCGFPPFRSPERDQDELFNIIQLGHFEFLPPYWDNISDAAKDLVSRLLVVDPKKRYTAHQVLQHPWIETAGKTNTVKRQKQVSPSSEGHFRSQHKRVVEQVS

As to `COc1ncc(-c2ccc3nccc(-c4ccnnc4)c3c2)cc1NS(=O)(=O)c1ccc(F)cc1F` [Omipalisib], the remaining activity at 1 µM on panel of 442 kinases [1] was 61%; at panel of 442 kinases [2] it was 92%; on panel of 442 kinases [3], 84%; at panel of 442 kinases [4] it was 99%; at panel of 442 kinases [5], 86%; at panel of 442 kinases [6], 100%. Also, the remaining activity at 1 µM at panel of 442 kinases [7] and at panel of 442 kinases [8] was 100% in each case.
Turning to `Cn1c(=O)n(-c2ccc(C(C)(C)C#N)cc2)c2c3cc(-c4cnc5ccccc5c4)ccc3ncc21` [Dactolisib, 2-methyl-2-[4-(3-methyl-2-oxo-8-quinolin-3-yl-2,3-dihydroimidazo[4,5-c]quinolin-1-yl)-phenyl] propionitrile], the remaining activity at 1 µM at panel of 442 kinases [1] came out at 60%; at panel of 442 kinases [2] it was 74%; at panel of 442 kinases [3], 100%; on panel of 442 kinases [9], 82%; at panel of 442 kinases [4], 100%; at panel of 442 kinases [5], 100%. Also, the remaining activity at 1 µM at panel of 442 kinases [6], on panel of 442 kinases [7] and at panel of 442 kinases [8] was 100% each time.
Regarding `Nc1cc(C(F)(F)F)c(-c2cc(N3CCOCC3)nc(N3CCOCC3)n2)cn1` [Buparlisib], the remaining activity at 1 µM at panel of 442 kinases [1] was determined as 100%; on panel of 442 kinases [2], 91%; on panel of 442 kinases [3], 100%; on panel of 442 kinases [9], 74%; at panel of 442 kinases [4], 100%; on panel of 442 kinases [5], 99%. Moreover, the remaining activity at 1 µM at panel of 442 kinases [6] came out at 90%; at panel of 442 kinases [7], 100%; on panel of 442 kinases [8] it was 89%. The remaining activity at 10 µM turned out to be 100% on panel of 442 kinases [1] (setting [10]); 77% on panel of 442 kinases [2] (setting [10]); 100% at panel of 442 kinases [3] (10 µM, read-out: WEE2 (% of control at 10 µM)); 44% on panel of 442 kinases [9] (setting [10]); 100% on panel of 442 kinases [4] (setting [10]); 100% at panel of 442 kinases [5] (setting [10]). The remaining activity at 10 µM at panel of 442 kinases [6] (10 µM, read-out: STK33 (% of control at 10 µM)) was determined as 97%; at panel of 442 kinases [7] (setting [10]), 100%; at panel of 442 kinases [8] (10 µM, read-out: TAOK3 (% of control at 10 µM)), 78%.
In the case of `FC(F)c1nc2ccccc2n1-c1nc(N2CCOCC2)nc(N2CCOCC2)n1` [ZSTK474, 2-(difluoromethyl)-1-[4,6-di(4-morpholinyl)-1,3,5-triazin-2-yl]-1H-benzimidazole], the remaining activity at 1 µM was determined as 78% on panel of 442 kinases [1]; 94% at panel of 442 kinases [2]; 96% at panel of 442 kinases [3]; 56% on panel of 442 kinases [9]; 100% at panel of 442 kinases [4]; 100% on panel of 442 kinases [5]. Further, the remaining activity at 1 µM on panel of 442 kinases [6] stood at 100%; on panel of 442 kinases [7], 100%; on panel of 442 kinases [8] it was 92%.

Source of the values: article PMC5564600 (Oncotarget, 2017).
